For series [1], the target named is T1, HLA-DR-2 molecules (Homo sapiens, UniProt P01903+P01911).
T1 construct: Recombinant water-soluble HLA-DR-2 molecules were incubated with biotinylated MBP 86-100; Soluble HLA-DR-2 molecules were expressed in Drosophila S2 cells; made in house; host or cells: Drosophila S2 cells
As to the kind of experiment: Competitive binding of biotinylated MBP 86-100 to HLA-DR-2 molecules. The settings on record: biotinylated MBP 86-100 0.13 μM, 40 hr at 37° C. As to the method: Protein expression and purification. Soluble HLA-DR-2 molecules were expressed in Drosophila S2 cells and purified as described (Kalandadze, A. et al. 1996. J. Biol. Chem. 271:20156-20162). Cells were grown at 26° C. in roller bottles in ExCell 401 medium (JRH Biosciences, Lenexa, Kans.) supplemented with 0-5% fetal bovine serum (Sigma Chemicals, St. Louis, Mo.). Cells were harvested 4-5 days after induction by 1 mM CuSO4. Supernatant from harvested cells was sequentially passed through Protein A, Protein G and Protein A-LB3.1 columns, followed by elution of the bound HLA-DR with 50 mM 3-[cyclohexylamino]-1-propanesulfonic acid (CAPS), pH 11.5, and neutralized with 200 mM phosphate (pH 6.0). Proteins were concentrated on a Centriprep 10 membrane (Amicon, Beverly, Mass.).
(A). Solutions. The solutions used in this assay are the following: binding buffer is 20 mM 2-[N-morpholino]ethanesulfonic acid (MES), 140 mM NaCl, 0.05% NaN3, pH 5.0, unless otherwise specified; PBS is 150 mM sodium chloride, 7.5 mM sodium phosphate, dibasic, 2.5 mM sodium phosphate, monobasic, pH 7.2; TBS is 137 mM sodium chloride, 25 mM Tris pH 8.0, 2.7 mM potassium chloride; TTBS is TBS plus 0.05% Tween-20. (B). […] Bound peptide-biotin was detected using streptavidin-conjugated alkaline phosphatase, as follows. […] Absorbance at 410 nm was monitored by a microplate reader (model MR4000; Dynatech, Chantilly, Va.).

The test system of series [2] is EAE induced by WSCH in SJL/J mice. As to the kind of experiment: Suppression of EAE induced by WSCH. In kind it is in vivo. The settings on record: for Incidence (mice with clinical signs of EAE / total immunized mice): SJL/J mice coinjected s.c. with 500 μg WSCH and 500 μg copolymer, observed 40 days. As to the method:
(§1) Induction and suppression of EAE. […] Mice were scored daily for clinical signs of EAE on a scale 1-5, according to the severity of disease symptoms as previously described (Santambrogio, L. et al. 1993. J. Immunol. 151: 1116). For determination of suppression of EAE, each copolymer (500 μg/mouse) was mixed and injected with the encephalitogenic emulsion as described above.
To find out whether VEAK and FEAK random copolymers affected the clinical course of EAE in SJL/J mice, a number of in vivo experiments were performed. The protocol for disease induction was subcutaneous injection to co-immunize with both WSCH (500 μg) and each copolymer (500 μg), similar to the protocol of previous studies of suppression of EAE by Cop1 (Teitelbaum, D. et al. 1996. J. Neuroimmunol. 64:209-217). Following disease induction, mice were observed daily for 40 days for appearance of typical clinical signs of EAE (Table 1).

Series [3] relates to H-2s-restricted PLP 139-151-specific T cell hybridoma hPLP/1. As to the kind of experiment: Antigen presentation assay, hPLP/1 hybridoma. The settings on record: SJL/J splenocytes, PLP 139-151 24 μM, copolymer 28 μM (FIG. 2B). It is filed as cell-based, mouse. The source says: (§2) Antigen presentation assays.
The test system of series [4] is H-2s-restricted PLP 139-151-specific T cell hybridoma hPLP/c4. The settings on record: SJL/J splenocytes, PLP 139-151 24 μM, copolymer 28 μM (FIG. 2C).
Series [5] relates to EAE induced by PLP 139-151 in SJL/J mice. As to the kind of experiment: Suppression of EAE induced by PLP 139-151 peptide. It is filed as in vivo. The settings on record: for Maximum mean score: clinical scale 1-5; for Incidence (mice with clinical signs of EAE / total immunized mice): Example 10: SJL/J mice co-injected with 50 μg PLP 139-151 and 500 μg copolymer, observed 70 days. As to the method: as §1
To find out whether random copolymers provided herein might affect development of chronic-relapsing EAE, mice were injected subcutaneously with 50 μg of PLP 139-151 (SEQ ID NO: 4; the encephalitogenic epitope in the SJL/J strain) alone, or with 50 μg of PLP 139-151 (SEQ ID NO: 4) and 500 μg of the copolymer. Mice were examined on a daily basis for 90 days after the induction of the disease.
In vivo experiments were carried out to determine whether the Y- and F-containing 50-mer random copolymers would affect the clinical course of EAE in SJL/J mice. As in Examples above, the protocol for co-immunization was subcutaneous injection of SJL/J mice with, in this example, the encephalitogenic epitope PLP 139-151 (SEQ ID NO: 4; 50 μg) and a copolymer preparation (500 μg). Following disease induction, mice were observed daily for appearance of typical signs of EAE, during a period of 70 days.

Series [6] concerns Hy1B clone (MBP 84-102-specific TCR transfectant). As to the kind of experiment: Antigen presentation assay, Hy1B T cell clone. It is filed as cell-based. To be noted: MGAR APC, MBP 85-99 12.5 μM (FIG. 1C).
Description: as §2

Series [7] has as its system EAE induced by MBP 85-99 in humanized mice carrying HLA DR-2 and TCR transgenes. As to the kind of experiment: Suppression of EAE induced by MBP 85-99 in humanized mice. It is filed as in vivo. The settings on record: for Clinical score (severity of symptoms): 50 days. The source says: Mouse strains. SJL/J (H-2^s) mice (8-12 weeks of age) were purchased from Jackson Laboratories (Bar Harbor, Me.) and were maintained in the animal facility at Harvard University according to the Guidelines of the Committee on Animals of Harvard University and the Committee on Care and Use of Laboratory Animal Resources, National Research Counsel (Department of Health and Human Services Publication 85-23, revised 1987).
Experimental animals were humanized mice carrying transgenes HLA DR-2 (DRA* 0101 and DRB1* 1501) and TCR from MS patient […], which is a V(D)J rearrangement of TCRα and TCRβ, amplified from clone Ob.1A12. Mice in each group were injected with MBP 85-99 (SEQ ID NO: 2) subcutaneously to induce EAE. […] Clinical symptoms were monitored over a course of 50 days on days indicated.

In series [8] the test system is MS patients. The settings on record: cited from earlier work.
Series [9] concerns 2E12 T cell clone (MBP 84-102-specific hybridoma from HLA-DR-2-transgenic mice). As to the kind of experiment: Antigen presentation assay, 2E12 T cell clone. It is filed as cell-based, mouse. To be noted: L466 APC, MBP 85-99 4 μM (FIG. 1A).
Description: as §2

Where [10] appears, read: SJL/J mice, 500 μg WSCH + 500 μg copolymer.
Setting [11] is: Example 10: 50 μg PLP 139-151 + 500 μg copolymer.
The mark [12] stands for this setting: Example 10: 50 μg PLP 139-151 + 500 μg copolymer, listed as Copaxone®.

Consider ENPVVHFFKNIVTPR [MBP 85-99], for which the “Inhibition of binding of biotinylated MBP 86-100 to HLA-DR-2 molecules” value in series [1] is “inhibited most efficiently”.
Take Glatiramer acetate [Copaxone ®]: the “Incidence (mice with clinical signs of EAE / total immunized mice)” value is 1/14 in [2], “One out of fourteen” in series [2] (listed as Copaxone®), 12/16 in [5] and 12 of 16 in series [5] (listed as Copaxone®). The “Mean day of onset” value came out at 20.0 days in [2] (setting [10]); 20 days in series [2] (SJL/J mice, 500 μg WSCH + 500 μg copolymer, listed as Copaxone®); 22.7 ± 7.1 days in [5] (setting [11]); 22 days in series [5] (setting [12]). Further, the Percent disease in series [2] (setting [10]) is on record as 7%; in [5] (setting [11]) it was 75%. Besides, the Percent mortality in series [2] (setting [10]) is listed as 0%; in [5] (setting [11]) it was 6%. The Maximum mean score in series [2] (SJL/J mice, 500 μg WSCH + 500 μg copolymer, clinical scale 1-5) is given as 3.0; in [5] (setting [11]) it was 2.6 ± 1.6; in [5] (setting [12]) it was 2.6. In addition, the “Effect on course of EAE induced by WSCH (in words)” value in series [2] (co-immunization, 500 μg copolymer) was “suppressed EAE”. Besides, the “Inhibition of proliferation of hPLP/1 hybridoma” value in series [3] was “best inhibited”. Moreover, the “Inhibition of hPLP/c4 hybridoma” value in series [4] is listed as “best inhibited”. Moreover, the “Day of first attack” value in series [5] (Example 6) is 26 days. In addition, the “Day of peak of first attack” value in series [5] (Example 6) came to 34 days. This substance also registered a Mean maximal score in series [5] (Example 6) of 1.25. For the same substance, in series [5] (Example 6: 50 μg PLP 139-151 + 500 μg copolymer, 90 days), the Mortality was 12%. Besides, in [5] (Example 6: 50 μg PLP 139-151 + 500 μg copolymer, observed 90 days), the “Mice with clinical signs of EAE out of group” value is “two out of eight”. In addition, the “Inhibition of binding of biotinylated MBP 86-100 to HLA-DR-2 molecules” value in series [1] is recorded as “inhibited most efficiently”. Besides, in series [6], the “Inhibition of the Hy1B clone” value is given as “best inhibitor”. Moreover, the “Number of time points with symptoms” value is recorded as “nine” in [7] (co-immunized) and 14 time points in series [7] (pre-immunized). For the same substance, the “Clinical score (severity of symptoms)” value in [7] (co-immunized on day 0 with 500 μg copolymer and 50 μg MBP 85-99) was 2 to 3; in series [7] (pre-immunized two days prior to EAE induction), “greater than 3”. For the same substance, the “Stable level of symptoms (severity)” value in [7] (pre-immunized) is “greater than 1”. Moreover, in series [8], the “Reduction of frequency of relapse” value is reported as “about 30%”. Moreover, the Toxicity entry in series [8] (wide use) is listed as “little or no toxicity”. In [9], the “Inhibition of proliferation of the 2E12 T cell clone” value is “efficient”.
